Data published in BindingDB's records for doi:10.1021/acs.jmedchem.8b01497 ("Sapienza" Universit&#163, 2018).

Molecular target: T1, Heparanase (Homo sapiens, UniProt Q9Y251)
T1 sequence (Q9Y251 whole entry): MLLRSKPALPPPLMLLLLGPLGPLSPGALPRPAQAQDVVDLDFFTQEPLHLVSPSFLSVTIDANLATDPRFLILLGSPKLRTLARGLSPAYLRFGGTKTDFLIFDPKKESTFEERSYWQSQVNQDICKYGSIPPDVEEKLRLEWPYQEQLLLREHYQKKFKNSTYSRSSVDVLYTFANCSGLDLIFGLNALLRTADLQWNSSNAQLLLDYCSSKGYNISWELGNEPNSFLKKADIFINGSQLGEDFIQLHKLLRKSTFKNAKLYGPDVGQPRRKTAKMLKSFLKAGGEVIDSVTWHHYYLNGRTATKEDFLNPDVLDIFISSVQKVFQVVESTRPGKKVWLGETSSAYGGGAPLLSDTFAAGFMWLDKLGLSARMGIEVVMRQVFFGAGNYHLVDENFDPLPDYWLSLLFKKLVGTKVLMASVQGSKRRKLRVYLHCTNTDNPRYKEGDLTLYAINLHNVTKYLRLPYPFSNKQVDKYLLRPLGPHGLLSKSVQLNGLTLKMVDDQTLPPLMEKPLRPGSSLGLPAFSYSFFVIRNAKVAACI
Assay: Inhibition of recombinant HPSE (unknown origin) using fondaparinux as substrate incubated for 3 hrs in absence of light by WST1 assay

IC50: 5 nM
SMILES: CC(=O)N[C@H]1[C@@H](O[C@@H](CO)C(O[C@H](O)CO)C(=O)O)O[C@H](CO)[C@@H](O[C@@H]2OC(C(=O)O)[C@@H](O[C@H]3O[C@H](CO)[C@@H](O)[C@H](O)[C@H]3NC(C)=O)[C@H](O)[C@H]2OS(=O)(=O)O)[C@@H]1O (stereo partly specified)
